Data as given in PMC11306024, “Novel metabolite madeirone and neomarinone extracted from Streptomyces aculeoletus as marine antibiofilm and antifouling agents” (Frontiers in Chemistry, 2024).

Key:
P. inhibens = assay: Antibacterial activity (growth inhibition, OD600); format: cell-based, Phaeobacter inhibens DSM 17395; conditions: 48 h
Description: (§1) To assess antimicrofouling activity, we selected five marine bacterial species as models: Marinobacter hydrocarbonoclasticus DSM 8798 (ATCC 49840), C. marina DSM 4741, Phaeobacter inhibens DSM 17,395, Pseusooceanicola batsensis DSM 15,984, and Micrococcus luteus DSM 20030 (ATCC 4698) ([Michael et al., 2016]). These strains, sourced from DSMZ (Leibniz Institute DSMZ—German Collection of Microorganisms and Cell Cultures), were cultured in liquid marine broth (Carl Roth GmbH, Karlsruhe, Germany) with agitation at 180 rpm or on agar-supplemented marine broth. Incubation temperatures were set at 28°C for M. hydrocarbonoclasticus and Cobetia marina, 30°C for P. inhibens and P. batsensis, while M. luteus was maintained at 37°C in Brain Heart Infusion broth (BHI, Becton Dickinson, GmbH, Heidelberg, Germany) under similar agitation conditions.
(§2) The antibacterial efficacy of compounds (1) and (2) was assessed in 96-well polystyrene flat-bottom microplates (Nunclon Delta Surface, Thermo Scientific, Roskilde, Denmark) following established procedures ([Bauermeister et al., 2019]). In the initial screening, bacterial overnight cultures were diluted to an optical density (OD600nm) of 0.2 and incubated statically at appropriate temperatures. The cultures were treated with the following final concentrations per well: 31.25, 15.60, 7.81, 3.91, 1.95, and 0.98 μg/mL (2-fold serial dilutions) of the compounds, solubilized in DMSO, or left untreated. After 24 h (M. hydrocarbonoclasticus, C. marina) or 48 h (P. batsensis, P. inhibens, M. luteus) incubation, optical density at 600 nm (OD600) was measured using a Molecular Devices Spectra Max 190. Growth inhibition percentages were calculated relatively to untreated bacterial species, using DMSO as a negative control. CuSO4 (0.16 μg/mL), a recognized antifouling agent, was used as positive control. All assays were conducted in triplicate, and the results represent the mean and standard error of the mean (SEM). Statistical analysis was carried out using GraphPad Prism 8.0.2 (San Diego, CA, United States), employing one-way ANOVA followed by Dunnett’s multiple comparisons test against the negative control.

P. batsensis = assay: Antibacterial activity (growth inhibition, OD600); format: cell-based, Pseudo-oceanicola batsensis DSM 15984; conditions: 48 h; for inhibition at 15.6 µg/mL: 15.60 µg/mL
Description: as §1, §2

C. marina [1] = assay: Antibiofilm activity (inhibition of biofilm formation); format: cell-based, Cobetia marina DSM 4741; conditions: for Biofilm inhibition, up to (highest over tested concentrations) C. marina: 0.98-31.25 µg/mL tested; for inhibition at 0.98 µg/mL / inhibition at 1.95 µg/mL / inhibition at 3.91 µg/mL / inhibition at 7.81 µg/mL / inhibition at 15.6 µg/mL / inhibition at 31.25 µg/mL: Cobetia marina, 24 h; for inhibition at 15.6 µg/mL: 15.60 µg/mL
Description: as §1
(§3) The antibiofilm potential of compounds (1) and (2) against the five marine bacterial species was investigated in 96-well polystyrene flat-bottom microplates (Nunclon Delta Surface, Thermo Scientific, Roskilde, Denmark), as described previously ([Bauermeister et al., 2019]; [Pereira et al., 2020]). In the initial screening, bacterial overnight cultures were diluted to an OD600 of 0.2 and incubated statically at appropriate temperatures. The cultures were tested at 31.25, 15.60, 7.81, 3.91, 1.95, 0.98 μg/mL concentrations (2-fold serial dilutions) of compounds (1) and (2), solubilized in DMSO, or left untreated. After 24 h (M. hydrocarbonoclasticus, C. marina) or 48 h (P. batsensis, P. inhibens, M. luteus) incubation, OD600 was measured. The planktonic cells and media were discarded, and the wells were washed twice with deionized water. Biofilms were fixed, stained, and quantified by measuring the OD600 after solubilization with acetic acid. Biofilm inhibition percentages were calculated relative to untreated bacterial species, using DMSO as a negative control and CuSO4 (0.16 μg/mL), as a positive control. All assays were performed in triplicate, and the results represent the mean and standard error of the mean (SEM). Statistical analysis was conducted using GraphPad Prism 8.0.2, employing one-way ANOVA followed by Dunnett’s multiple comparisons test against the negative control.

M. luteus = assay: as above; format: cell-based, Micrococcus luteus DSM 20030
Description: as §1, §3

M. hydrocarbonoclasticus = assay: as above; format: cell-based, Marinobacter hydrocarbonoclasticus DSM 8798; conditions: for Biofilm inhibition, up to (highest over tested concentrations) M. hydrocarbonoclasticus: 0.98-31.25 µg/mL tested; for inhibition at 15.6 µg/mL: 15.60 µg/mL
Description: as §1, §3

C. marina [2] = assay: Antibacterial activity (growth inhibition, OD600); format: cell-based, Cobetia marina DSM 4741; conditions: 24 h; for inhibition at 15.6 µg/mL: 15.60 µg/mL
Description: as §1, §2

Structure (SMILES)	Growth inhibition (%) P. inhibens (P. inhibens; 0.98 µg/mL)	Growth inhibition (%) P. inhibens (P. inhibens; 1.95 µg/mL)	Growth inhibition (%) P. inhibens (P. inhibens; 3.91 µg/mL)	Growth inhibition (%) P. inhibens (P. inhibens; 7.81 µg/mL)	Growth inhibition (%) P. inhibens (P. inhibens; 15.60 µg/mL)	inhibition at 1.95 µg/mL (P. batsensis)	inhibition at 3.91 µg/mL (P. batsensis)	inhibition at 7.81 µg/mL (P. batsensis)	inhibition at 15.6 µg/mL (P. batsensis)	inhibition at 31.25 µg/mL (P. batsensis)	Biofilm inhibition, up to (highest over tested concentrations) C. marina (C. marina [1])	inhibition at 0.98 µg/mL (C. marina [1])	inhibition at 1.95 µg/mL (C. marina [1])	inhibition at 3.91 µg/mL (C. marina [1])	inhibition at 7.81 µg/mL (C. marina [1])	inhibition at 15.6 µg/mL (C. marina [1])	inhibition at 31.25 µg/mL (C. marina [1])	Biofilm inhibition (%) M. luteus (M. luteus; 0.98 µg/mL, 48 h)	Biofilm inhibition (%) M. luteus (M. luteus; 1.95 µg/mL, 48 h)	inhibition at 31.25 µg/mL (M. luteus; Micrococcus luteus, 48 h)	also measured
CC1=CCC[C@@H](C)[C@]1(C)CC[C@@]1(C)c2c(O)cc3c(c2O[C@@H]1C)C(=O)C(C)=C(O)C3=O [compound 2, neomarinone]	N.I.	N.I.	N.I.	N.I.	N.I.	0.3 ± 0.5%	4.2 ± 0.3%	0%	0.9 ± 0.4%	11.1 ± 0.4%	≤ 46%	26.5 ± 3.8%	24.5 ± 3%	26.9 ± 3.3%	34.4 ± 7.4%	42.6 ± 6.3%	45.8 ± 2.9%	N.I.	N.I.	33.3 ± 7.3%	Growth inhibition (%) P. inhibens (P. inhibens; 31.25 µg/mL): N.I.; Growth inhibition (%) P. batsensis (P. batsensis; 0.98 µg/mL): N.I.; Biofilm inhibition, up to (highest over tested concentrations) M. luteus (M. luteus; 0.98-31.25 µg/mL tested): up to 40%; inhibition at 3.91 µg/mL (M. luteus; Micrococcus luteus, 3.91 µg/mL, 48 h): 7.8 ± 16.9%; inhibition at 7.81 µg/mL (M. luteus; Micrococcus luteus, 7.81 µg/mL, 48 h): 29.9 ± 12.4%; inhibition at 15.6 µg/mL (M. luteus; Micrococcus luteus, 15.60 µg/mL, 48 h): 41 ± 8.2%; Biofilm inhibition, up to (highest over tested concentrations) M. hydrocarbonoclasticus (M. hydrocarbonoclasticus): ≤ 56%; inhibition at 0.98 µg/mL (M. hydrocarbonoclasticus; Marinobacter nauticus, 0.98 µg/mL, 24 h): 49.2 ± 6.2%; inhibition at 1.95 µg/mL (M. hydrocarbonoclasticus; Marinobacter nauticus, 1.95 µg/mL, 24 h): 58.1 ± 1.6%; inhibition at 3.91 µg/mL (M. hydrocarbonoclasticus; Marinobacter nauticus, 3.91 µg/mL, 24 h): 54.5 ± 3.6%; inhibition at 7.81 µg/mL (M. hydrocarbonoclasticus; Marinobacter nauticus, 24 h): 54.4 ± 1.8%; inhibition at 15.6 µg/mL (M. hydrocarbonoclasticus; Marinobacter nauticus, 24 h): 56.7 ± 1.5%; inhibition at 31.25 µg/mL (M. hydrocarbonoclasticus; Marinobacter nauticus, 24 h): 29 ± 10.1%; inhibition at 0.98 µg/mL (C. marina [2]; Cobetia marina, 0.98 µg/mL): 10.7 ± 2.2%; inhibition at 1.95 µg/mL (C. marina [2]; Cobetia marina, 1.95 µg/mL): 10.8 ± 3.1%; inhibition at 3.91 µg/mL (C. marina [2]; Cobetia marina, 3.91 µg/mL): 6.5 ± 1.2%; inhibition at 7.81 µg/mL (C. marina [2]; Cobetia marina): 9.2 ± 2.1%; inhibition at 15.6 µg/mL (C. marina [2]; Cobetia marina): 7.2 ± 2.9%; inhibition at 31.25 µg/mL (C. marina [2]; Cobetia marina): 1.1 ± 2%
CC1=CCC[C@@H](C)[C@]1(C)CC[C@@]1(C)c2c(O)cc3c(c2O[C@@H]1C)C(=O)C=C(CO)C3=O (relative stereo) [compound 1, madeirone]	N.I.	N.I.	N.I.	N.I.	N.I.	26.6 ± 0.8%	31 ± 0.7%	35.9 ± 0.5%	> 40%	> 40%	up to 40%	28.6 ± 23.2%	31.6 ± 15.3%	36.3 ± 6.4%	39.2 ± 5.4%	41.7 ± 10%	31 ± 9.6%	N.I.	N.I.	35.3 ± 0.2%	inhibition at 31.25 µg/mL (P. inhibens; Phaeobacter inhibens, 31.25 µg/mL): 24.3 ± 0.5%; inhibition at 0.98 µg/mL (P. batsensis; 0.98 µg/mL): 20.7 ± 1.1%; Biofilm inhibition (%) M. luteus (M. luteus; 3.91 µg/mL, 48 h): N.I.; Biofilm inhibition (%) M. luteus (M. luteus; 7.81 µg/mL, 48 h): N.I.; Biofilm inhibition (%) M. luteus (M. luteus; 15.60 µg/mL, 48 h): N.I.; Biofilm inhibition (%) M. hydrocarbonoclasticus (M. hydrocarbonoclasticus; 0.98 µg/mL, 24 h): N.I.; Biofilm inhibition (%) M. hydrocarbonoclasticus (M. hydrocarbonoclasticus; 1.95 µg/mL, 24 h): N.I.; Biofilm inhibition (%) M. hydrocarbonoclasticus (M. hydrocarbonoclasticus; 3.91 µg/mL, 24 h): N.I.; Biofilm inhibition, up to (highest over tested concentrations) M. hydrocarbonoclasticus (M. hydrocarbonoclasticus): up to 60%; inhibition at 7.81 µg/mL (M. hydrocarbonoclasticus; Marinobacter nauticus, 24 h): 14.2 ± 3.6%; inhibition at 15.6 µg/mL (M. hydrocarbonoclasticus; Marinobacter nauticus, 24 h): 33.9 ± 2.1%; inhibition at 31.25 µg/mL (M. hydrocarbonoclasticus; Marinobacter nauticus, 24 h): 60.1 ± 0.5%; Growth inhibition (%) C. marina (C. marina [2]; 0.98 µg/mL): N.I.; Growth inhibition (%) C. marina (C. marina [2]; 1.95 µg/mL): N.I.; Growth inhibition (%) C. marina (C. marina [2]; 3.91 µg/mL): N.I.; inhibition at 7.81 µg/mL (C. marina [2]; Cobetia marina): 10 ± 2.1%; inhibition at 15.6 µg/mL (C. marina [2]; Cobetia marina): 7.7 ± 4%; inhibition at 31.25 µg/mL (C. marina [2]; Cobetia marina): 12.7 ± 2.7%
